Assay results as given in the supplement of paper PMC10307832.

Columns and labels:
Assay in all cases: relative viability (nuclei count vs DMSO), 5 days (fraction); higher = more cells survive
[1] = compound: COC1=C(C=C(C=C1)C2=CC3=NC=CN3C(=N2)NC4=C(C=CC=N4)C(=O)N)OC [BAY61-3606] + CS(=O)(=O)N1CCN(Cc2cc3nc(-c4cccc5[nH]ncc45)nc(N4CCOCC4)c3s2)CC1 [Pictilisib] (partner 1 µM)
Procedure, shortened: (§1)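 Lung cancer cell lines in 1536-well plates were dosed by pin tool the day after seeding, either with one drug alone or with a fixed anchor-drug dose plus five library-drug doses (not always all listed) in √10 steps. After 5 days, cells were fixed and their nuclei stained in one step (final 0.05% Triton X-100, 1% formaldehyde, 1 ug/ml Hoechst), then counted on 4× images. Relative viability is the nuclei count in treated wells divided by that in vehicle wells. Values are medians of duplicate plates.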

[2] = compound: COC1=C(C=C(C=C1)C2=CC3=NC=CN3C(=N2)NC4=C(C=CC=N4)C(=O)N)OC [BAY61-3606] + COc1cccc2cc(-c3nc([C@H]4CC[C@H](C(=O)O)CC4)n4ncnc(N)c34)[nH]c12 [OSI-027] (partner 0.5 µM)
Procedure, shortened: as §1

[3] = compound: COC1=C(C=C(C=C1)C2=CC3=NC=CN3C(=N2)NC4=C(C=CC=N4)C(=O)N)OC [BAY61-3606] + Cc1cc(Nc2cc(N3CCN(C)CC3)nc(Sc3ccc(NC(=O)C4CC4)cc3)n2)n[nH]1 [Tozasertib] (partner 0.1 µM)
Procedure, shortened: as §1

[4] = compound: COC1=C(C=C(C=C1)C2=CC3=NC=CN3C(=N2)NC4=C(C=CC=N4)C(=O)N)OC [BAY61-3606] + C[C@]1(O)C[C@@H](c2nc(-c3ccc4ccc(-c5ccccc5)nc4c3)c3c(N)nccn32)C1 [Linsitinib] (partner 1 µM)
Procedure, shortened: as §1

Row | Cell Line | relative viability ([1]; first compound 0.02 µM) | relative viability ([1]; first compound 0.06325 µM) | relative viability ([1]; first compound 0.2 µM) | relative viability ([1]; first compound 0.6325 µM) | relative viability ([1]; first compound 2 µM) | relative viability ([2]; first compound 0.02 µM) | relative viability ([2]; first compound 0.06325 µM) | relative viability ([2]; first compound 0.2 µM) | relative viability ([2]; first compound 0.6325 µM) | relative viability ([2]; first compound 2 µM) | relative viability ([3]; first compound 0.02 µM) | relative viability ([3]; first compound 0.06325 µM) | relative viability ([3]; first compound 0.2 µM) | relative viability ([3]; first compound 0.6325 µM) | relative viability ([3]; first compound 2 µM) | relative viability ([4]; first compound 0.02 µM) | relative viability ([4]; first compound 0.06325 µM) | relative viability ([4]; first compound 0.2 µM) | relative viability ([4]; first compound 0.6325 µM) | relative viability ([4]; first compound 2 µM)
1 | HCC-78 | 0.297 | 0.226 | 0.251 | 0.158 | 0.167 | 0.411 | 0.393 | 0.404 | 0.351 | 0.427 | 0.499 | 0.317 | 0.312 | 0.415 | 0.28 | 0.742 | 0.456 | 0.598 | 0.535 | 0.459
2 | HCC-366 | 0.188 | 0.138 | 0.107 | 0.156 | 0.116 | 1.07 | 0.875 | 0.81 | 0.862 | 0.715 | 0.115 | 0.0576 | 0.0642 | 0.0443 | 0.0501 | 0.831 | 0.613 | 0.689 | 0.694 | 0.366
3 | HCC-827 | 1.03 | 0.893 | 1.15 | 1.09 | 0.915 | 0.698 | 0.845 | 0.817 | 0.803 | 0.787 | 0.412 | 0.415 | 0.373 | 0.387 | 0.38 | 0.971 | 0.959 | 0.973 | 1.05 | 0.966
4 | HOP-62 | 0.68 |  | 0.582 | 0.783 | 0.53 | 0.859 | 0.838 | 0.774 | 0.786 | 0.714 | 0.323 | 0.224 | 0.297 | 0.286 | 0.144 | 1.11 |  | 0.961 | 1.11 | 0.713
5 | IA-LM | 0.351 | 0.393 | 0.442 | 0.54 | 0.496 |  |  |  |  |  |  |  |  |  |  | 0.52 | 0.573 | 0.559 | 0.662 | 0.354
6 | LC-2-ad | 0.405 | 0.429 | 0.29 | 0.468 | 0.235 | 0.853 | 0.772 | 0.8 | 0.997 | 0.654 | 0.404 | 0.308 | 0.387 | 0.44 | 0.345 | 0.971 | 0.922 | 0.897 | 0.827 | 0.562
7 | LCLC-97TM1 | 0.272 |  | 0.28 | 0.178 | 0.179 | 0.515 | 0.608 | 0.581 | 0.423 | 0.392 | 0.17 | 0.184 | 0.233 | 0.147 | 0.0986 | 0.182 |  | 0.187 | 0.18 | 0.175
8 | LCLC-103H | 0.646 | 0.737 | 0.654 | 0.542 | 0.646 | 0.472 | 0.434 | 0.478 | 0.425 | 0.439 | 0.459 | 0.335 | 0.484 | 0.352 | 0.213 | 1.07 | 1.13 | 1.12 | 1.37 | 1.13
9 | LK-2 | 0.594 | 0.423 | 0.614 | 0.758 | 0.532 | 0.197 | 0.16 | 0.22 | 0.231 | 0.185 | 0.19 | 0.163 | 0.193 | 0.158 | 0.21 | 0.487 | 0.529 | 0.691 | 0.834 | 0.412
10 | LOU-NH91 | 0.566 | 0.544 | 0.568 | 0.505 | 0.472 | 0.743 | 0.725 | 0.766 | 0.719 | 0.708 | 0.617 | 0.363 | 0.473 | 0.422 | 0.344 | 0.978 | 0.858 | 0.977 | 1.01 | 0.796
11 | NCI-H522 |  |  |  |  |  | 0.653 | 0.646 | 0.686 | 0.717 | 0.738 | 0.562 | 0.517 | 0.527 | 0.574 | 0.5 |  |  |  |  | 
12 | NCI-H1299 | 0.822 | 0.854 | 0.844 | 0.918 | 0.503 |  |  |  |  |  |  |  |  |  |  | 0.977 | 1.03 | 0.994 | 1 | 0.89
13 | NCI-H1563 | 0.621 | 0.579 | 0.731 | 0.654 | 0.653 | 0.742 | 0.764 | 0.699 | 0.71 | 0.676 |  |  |  |  |  | 1.37 | 1.42 | 1.2 | 1.12 | 1.03
14 | NCI-H1623 |  |  |  |  |  | 0.417 | 0.427 | 0.504 | 0.418 | 0.412 | 0.485 | 0.439 | 0.458 | 0.394 | 0.328 |  |  |  |  | 
15 | NCI-H1648 |  |  |  |  |  | 0.219 | 0.257 | 0.263 | 0.229 | 0.217 | 0.376 | 0.356 | 0.448 | 0.408 | 0.231 |  |  |  |  | 
16 | NCI-H1650 | 0.728 | 0.493 | 0.68 | 0.564 | 0.402 | 0.702 | 0.442 | 0.666 | 0.686 | 0.396 | 0.362 | 0.265 | 0.264 | 0.329 | 0.204 |  |  |  |  | 
17 | NCI-H1703 | 0.27 | 0.233 | 0.241 | 0.256 | 0.214 |  |  |  |  |  |  |  |  |  |  | 0.596 | 0.389 | 0.842 | 0.808 | 0.341
18 | NCI-H1792 | 0.293 | 0.176 | 0.328 | 0.363 | 0.303 | 0.756 | 0.716 | 0.712 | 0.644 | 0.528 |  |  |  |  |  | 0.531 | 0.494 | 0.591 | 0.627 | 0.627
19 | NCI-H2170 | 0.368 | 0.28 | 0.308 | 0.389 | 0.265 | 0.693 | 0.65 | 0.8 | 0.776 | 0.597 | 0.714 | 0.475 | 0.751 | 0.607 | 0.213 |  |  |  |  | 
20 | NCI-H2342 |  |  |  |  |  | 0.705 | 0.609 | 0.596 | 0.682 | 0.664 | 0.574 | 0.466 | 0.47 | 0.668 | 0.525 |  |  |  |  | 
21 | SW 900 |  |  |  |  |  | 0.616 | 0.529 | 0.612 | 0.747 | 0.427 | 0.576 | 0.582 | 0.372 | 0.294 | 0.237 |  |  |  |  | 
